# Reference: BindingDB's records for patent US20250170104 (Helmholtz-Zentrum Fur Infektionsforschung, 2025)
# Molecular target: Elastase (Pseudomonas aeruginosa (strain ATCC 15692 / DSM 22644 / CIP 104116 / JCM 14847 / LMG 12228 / 1C / PRS 101 / PAO1), UniProt P14756)
# Assay: In Vitro LasB Activity Assay
# Method: Fluorescence intensity was measured for 60 min at 37° C. in black 384-well microtiter plates (Greiner BioOne, Kremsm nster, Austria) using a CLARIOstar microplate reader (BMG Labtech, Ortenberg, Germany) with an excitation wavelength of […] and an emission wavelength of 415±20 nm. The assay was performed in a final volume of 50 μL of assay buffer (50 mM Tris, pH 7.2, 2.5 mM CaCl2), 0.075% Pluronic F-127, 5% DMSO) containing LasB at a final concentration of […] 0.3 nM and the substrate at 150 μM. Before substrate addition, compounds were preincubated with the enzyme at 37° C. for 15 min. Experiments were performed in duplicates and repeated for at least two times. Blank controls without enzyme were performed. After blank subtraction, the slope of samples containing inhibitors (v) was divided by the slope of a simultaneously started uninhibited enzymatic reaction (v0).
# Sequence of Elastase (P14756 whole entry): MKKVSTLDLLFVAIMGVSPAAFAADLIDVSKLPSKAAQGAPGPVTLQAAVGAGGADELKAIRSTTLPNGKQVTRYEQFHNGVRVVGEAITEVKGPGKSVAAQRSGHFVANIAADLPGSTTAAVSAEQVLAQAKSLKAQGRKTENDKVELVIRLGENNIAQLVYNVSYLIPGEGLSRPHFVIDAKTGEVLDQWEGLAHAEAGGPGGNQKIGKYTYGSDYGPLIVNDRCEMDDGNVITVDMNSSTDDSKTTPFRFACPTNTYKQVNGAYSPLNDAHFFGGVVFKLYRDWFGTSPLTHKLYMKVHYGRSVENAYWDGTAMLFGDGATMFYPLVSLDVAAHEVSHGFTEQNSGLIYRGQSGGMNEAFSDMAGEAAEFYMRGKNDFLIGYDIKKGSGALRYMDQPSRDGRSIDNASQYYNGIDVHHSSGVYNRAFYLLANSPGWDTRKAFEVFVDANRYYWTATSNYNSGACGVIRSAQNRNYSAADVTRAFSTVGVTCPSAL
smiles,measurement,value
"CC(C)CC(C(=O)NO)C(=O)Nc1ccc(Cn2cc(CNS(=O)(=O)c3ccc(C(=O)O)cc3)nn2)cc1 (stereo unspecified) [US20250170104, Compound 209]",IC50,44.6 nM
